# From PMC9270327 (Communications Biology, 2022)
# Several values for one entry are separate records, joined by “and”; a condition that tells them apart may be missing. Identical values can stand only once. Counter-ions that a name gives are not always drawn. Like-named read-outs stand apart in the source and are kept apart here.
# Key:
# [1] = test system: SARS-CoV-2 Beta (B.1.351), Caco-2 cells; type: cell-based
# [2] = biological target: T1, TMPRSS2 (Homo sapiens, UniProt O15393); test: Plasma stability: residual TMPRSS2 inhibition after incubation in human plasma
# T1 sequence (O15393 whole entry): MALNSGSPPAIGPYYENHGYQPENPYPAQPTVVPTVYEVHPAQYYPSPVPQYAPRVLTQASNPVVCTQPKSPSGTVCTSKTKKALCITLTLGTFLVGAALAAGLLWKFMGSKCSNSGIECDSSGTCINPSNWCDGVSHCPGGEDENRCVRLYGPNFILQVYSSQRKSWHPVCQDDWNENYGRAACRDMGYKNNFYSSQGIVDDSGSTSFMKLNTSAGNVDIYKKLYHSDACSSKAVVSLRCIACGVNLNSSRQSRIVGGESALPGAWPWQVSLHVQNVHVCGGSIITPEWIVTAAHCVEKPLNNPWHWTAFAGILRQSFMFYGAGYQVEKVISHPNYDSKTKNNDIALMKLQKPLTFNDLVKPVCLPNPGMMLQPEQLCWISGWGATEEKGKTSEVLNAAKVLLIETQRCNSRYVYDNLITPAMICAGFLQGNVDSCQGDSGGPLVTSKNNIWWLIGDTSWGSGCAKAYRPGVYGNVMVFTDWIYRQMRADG
# Description: The activity of the compounds against the recombinant human enzymes was determined in enzyme inhibition assays. […] The measurements were performed on a Tecan infinite® M1000 and the fluorescence intensity was measured by exciting the AMC fluorophore at 380 nm wavelength and recording emission at 460 nm wavelength. […] Fluorescence intensities and absorption were measured every 2 min for 2 h or as endpoint after 2 h. […] To determine the IC50 values, the concentration-response data were plotted with the program GraphPad prism version 8.4.2 (San Diego, California) and a nonlinear regression fit with the equation [Inhibitor] vs. normalized response was applied. The inhibitory constant Ki was calculated from the IC50 values using the Cheng–Prusoff equation (Ki = IC50/[S]/KM) for competitive reversible inhibitors[66].
# The stability of the inhibitors was measured according to a modified procedure from ref. [67]. […] At indicated timepoints, 100 µL samples were taken and mixed with 200 µL of ethanol to precipitate proteins. […] The supernatant was aspirated and analyzed using analytical HPLC. The residual inhibitory constants Ki after incubation was assessed by mixing serial dilutions of the inhibitor with recombinant TMPRSS2 as described above.
# Shown are the means ± SD of n=1 experiment performed in triplicates.
# [3] = test system: lentiviral pseudoparticles carrying SARS-CoV-2 Alpha (B.1.1.7) spike, Caco-2 cells; type: cell-based; details: for SARS-CoV-2 spike driven entry, Mean (0 nM = 100): Fig. 5b
# [4] = biological target: cellular TMPRSS2 activity, Caco-2 cells (Homo sapiens, UniProt O15393); details: normalized, 0 nM = 100
# cellular TMPRSS2 activity, Caco-2 cells, sequence (O15393 whole entry): as above
# Description: In total, 10,000 Caco-2 cells (ATCC) in 100 µL EMEM medium supplemented with 10% FBS, 100 U/mL penicillin, […] streptomycin, and 2 mM glutamine (all Invitrogen, Germany) were seeded per well in a 96-well plate and incubated at 37 °C for 4 days until full confluency of the cells. The cells were washed two times with PBS and EMEM medium without FBS was added. […] The fluorescence intensity was measured as described above. In all, 20,000 HEK293T cells (ATCC) were seeded in 100 µL DMEM supplemented with 10% FBS, 100 U/mL penicillin, […] streptomycin, and 2 mM glutamine. […] After 14 h, transfection mix was removed from the cells and 80 µL fresh medium without FBS and 10 µL inhibitors were added (final concentration 50 µM). […] Fluorescence intensity was measured after 2 h at 37 °C as described above.
# [5] = test system: SARS-CoV-2 Wuhan-Hu-1, Caco-2 cells; type: cell-based
# [6] = biological target: T1, TMPRSS2; type: biochemical; set-up: purchased Creative BioMart (New York, USA) or LSBio (Seattle, USA); details: normalized, 0 nM = 100
# Description: (§1) Recombinant human TMPRSS2 was purchased from Creative BioMart (New York, USA) or LSBio (Seattle, USA), factor Xa was obtained from Bio-Techne GmbH (Wiesbaden, Germany). Recombinant human thrombin and matriptase protein were purchased from R&D Systems (Minneapolis, MN, USA).
# [7] = test system: lentiviral pseudoparticles carrying SARS-CoV-2 Beta (B.1.351) spike, Caco-2 cells; type: cell-based; details: for SARS-CoV-2 spike driven entry, Mean (0 nM = 100): Fig. 5c
# [8] = test system: lentiviral pseudoparticles carrying SARS-CoV-2 Omicron BA.1 (B.1.1.529) spike, Caco-2 cells; type: cell-based
# [9] = biological target: T2, factor Xa (Homo sapiens, UniProt P00742); test: Enzyme inhibition assay with purified factor Xa (Ki, dose-response); type: biochemical; details: for factor Xa activity, Mean (Fig. 2d): normalized
# T2 construct: purchased Bio-Techne GmbH (Wiesbaden, Germany)
# T2 sequence (P00742 235-488 limits assumed): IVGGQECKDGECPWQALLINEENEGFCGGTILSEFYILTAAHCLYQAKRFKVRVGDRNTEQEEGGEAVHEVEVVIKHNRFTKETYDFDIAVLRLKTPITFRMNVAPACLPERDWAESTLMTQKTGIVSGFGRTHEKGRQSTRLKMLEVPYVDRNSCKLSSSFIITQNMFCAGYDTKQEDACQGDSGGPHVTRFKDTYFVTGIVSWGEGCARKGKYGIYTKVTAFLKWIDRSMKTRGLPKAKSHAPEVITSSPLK
# T2 sequence (P00742 41-179 partner limits assumed): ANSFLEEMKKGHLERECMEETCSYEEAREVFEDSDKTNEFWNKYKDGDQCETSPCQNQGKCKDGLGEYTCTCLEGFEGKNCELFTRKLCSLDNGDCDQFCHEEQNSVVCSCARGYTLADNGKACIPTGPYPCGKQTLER
# Description: as §1
smiles,measurement,setting,value
"CN(C)C(=O)COC(=O)Cc1ccc(OC(=O)c2ccc(NC(=N)N)cc2)cc1 [CM, camostat mesylate, reference compound]",IC50,[1]; read-out: IC50 SARS-CoV-2 Beta,9310 nM
same,IC50,[1]; read-out: IC50 SARS-CoV-2 Beta (text),9300 nM
same,"TMPRSS2 activity, Mean (0 nM = 100)","[2]; inhibitor 0.0167 nM, 0 min in plasma",112.439
same,"TMPRSS2 activity, Mean (0 nM = 100)","[2]; inhibitor 0.0167 nM, 30 min in plasma",99.4869
same,"TMPRSS2 activity, Mean (0 nM = 100)","[2]; inhibitor 0.0167 nM, 60 min in plasma",94.1158
same,"TMPRSS2 activity, Mean (0 nM = 100)","[2]; inhibitor 0.0167 nM, 120 min in plasma",100.839
same,"TMPRSS2 activity, Mean (0 nM = 100)","[2]; inhibitor 0.0167 nM, 24 h in plasma",102.049
same,"TMPRSS2 activity, Mean (0 nM = 100)","[2]; inhibitor 0.0167 nM, 10 d in plasma",98.7798
same,"TMPRSS2 activity, Mean (0 nM = 100)","[2]; inhibitor 0.0167 nM, positive ctrl",95.8208
same,"TMPRSS2 activity, Mean (0 nM = 100)","[2]; inhibitor 0.167 nM, 0 min in plasma",118.068
same,"TMPRSS2 activity, Mean (0 nM = 100)","[2]; inhibitor 0.167 nM, 30 min in plasma",99.3363
same,"TMPRSS2 activity, Mean (0 nM = 100)","[2]; inhibitor 0.167 nM, 60 min in plasma",90.9592
same,"TMPRSS2 activity, Mean (0 nM = 100)","[2]; inhibitor 0.167 nM, 120 min in plasma",99.9584
same,"TMPRSS2 activity, Mean (0 nM = 100)","[2]; inhibitor 0.167 nM, 24 h in plasma",103.994
same,"TMPRSS2 activity, Mean (0 nM = 100)","[2]; inhibitor 0.167 nM, 10 d in plasma",99.2067
same,"TMPRSS2 activity, Mean (0 nM = 100)","[2]; inhibitor 0.167 nM, positive ctrl",72.6812
same,"TMPRSS2 activity, Mean (0 nM = 100)","[2]; inhibitor 1.665 nM, 0 min in plasma",103.981
same,"TMPRSS2 activity, Mean (0 nM = 100)","[2]; inhibitor 1.665 nM, 30 min in plasma",95.5323
same,"TMPRSS2 activity, Mean (0 nM = 100)","[2]; inhibitor 1.665 nM, 60 min in plasma",85.541
same,"TMPRSS2 activity, Mean (0 nM = 100)","[2]; inhibitor 1.665 nM, 120 min in plasma",96.8319
same,"TMPRSS2 activity, Mean (0 nM = 100)","[2]; inhibitor 1.665 nM, 24 h in plasma",101.166
same,"TMPRSS2 activity, Mean (0 nM = 100)","[2]; inhibitor 1.665 nM, 10 d in plasma",96.8623
same,"TMPRSS2 activity, Mean (0 nM = 100)","[2]; inhibitor 1.665 nM, positive ctrl",21.364
same,"TMPRSS2 activity, Mean (0 nM = 100)","[2]; inhibitor 16.65 nM, 0 min in plasma",71.7511
same,"TMPRSS2 activity, Mean (0 nM = 100)","[2]; inhibitor 16.65 nM, 30 min in plasma",65.1615
same,"TMPRSS2 activity, Mean (0 nM = 100)","[2]; inhibitor 16.65 nM, 60 min in plasma",67.6129
same,"TMPRSS2 activity, Mean (0 nM = 100)","[2]; inhibitor 16.65 nM, 120 min in plasma",74.7383
same,"TMPRSS2 activity, Mean (0 nM = 100)","[2]; inhibitor 16.65 nM, 24 h in plasma",100.72
same,"TMPRSS2 activity, Mean (0 nM = 100)","[2]; inhibitor 16.65 nM, 10 d in plasma",95.3646
same,"TMPRSS2 activity, Mean (0 nM = 100)","[2]; inhibitor 16.65 nM, positive ctrl",5.9227
same,"TMPRSS2 activity, Mean (0 nM = 100)","[2]; inhibitor 166.5 nM, 0 min in plasma",5.478
same,"TMPRSS2 activity, Mean (0 nM = 100)","[2]; inhibitor 166.5 nM, 30 min in plasma",3.6809
same,"TMPRSS2 activity, Mean (0 nM = 100)","[2]; inhibitor 166.5 nM, 60 min in plasma",3.225
same,"TMPRSS2 activity, Mean (0 nM = 100)","[2]; inhibitor 166.5 nM, 120 min in plasma",7.418
same,"TMPRSS2 activity, Mean (0 nM = 100)","[2]; inhibitor 166.5 nM, 24 h in plasma",28.8196
same,"TMPRSS2 activity, Mean (0 nM = 100)","[2]; inhibitor 166.5 nM, 10 d in plasma",97.9296
same,"TMPRSS2 activity, Mean (0 nM = 100)","[2]; inhibitor 166.5 nM, positive ctrl",2.192
same,"TMPRSS2 activity, Mean (0 nM = 100)","[2]; inhibitor 1665 nM, 0 min in plasma",4.824
same,"TMPRSS2 activity, Mean (0 nM = 100)","[2]; inhibitor 1665 nM, 30 min in plasma",0.6431
same,"TMPRSS2 activity, Mean (0 nM = 100)","[2]; inhibitor 1665 nM, 60 min in plasma",1.811
same,"TMPRSS2 activity, Mean (0 nM = 100)","[2]; inhibitor 1665 nM, 120 min in plasma",6.253
same,"TMPRSS2 activity, Mean (0 nM = 100)","[2]; inhibitor 1665 nM, 24 h in plasma",5.605
same,"TMPRSS2 activity, Mean (0 nM = 100)","[2]; inhibitor 1665 nM, 10 d in plasma",88.1928
same,"TMPRSS2 activity, Mean (0 nM = 100)","[2]; inhibitor 1665 nM, positive ctrl",0.4038
same,IC50,"[3]; Caco-2 cells, luciferase 2 days post transduction, read-out: IC50 pseudotyped lentivirus Alpha",98.7 nM
same,"SARS-CoV-2 spike driven entry, Mean (0 nM = 100)",[3]; compound 3.2 nM,71.733
same,"SARS-CoV-2 spike driven entry, Mean (0 nM = 100)",[3]; compound 16 nM,72.519
same,"SARS-CoV-2 spike driven entry, Mean (0 nM = 100)",[3]; compound 80 nM,51.5305
same,"SARS-CoV-2 spike driven entry, Mean (0 nM = 100)",[3]; compound 400 nM,39.483
same,"SARS-CoV-2 spike driven entry, Mean (0 nM = 100)",[3]; compound 2000 nM,18.526
same,"SARS-CoV-2 spike driven entry, Mean (0 nM = 100)",[3]; compound 10000 nM,4.853
same,"SARS-CoV-2 spike driven entry, Mean (0 nM = 100)",[3]; compound 50000 nM,1.159
same,"cellular protease activity on Caco-2 cells, Mean (Fig. 4a)",[4]; 0.1 nM,103.704
same,"cellular protease activity on Caco-2 cells, Mean (Fig. 4a)",[4]; 1 nM,98.7654
same,"cellular protease activity on Caco-2 cells, Mean (Fig. 4a)",[4]; 10 nM,63.4921
same,"cellular protease activity on Caco-2 cells, Mean (Fig. 4a)",[4]; 100 nM,38.9771
same,"cellular protease activity on Caco-2 cells, Mean (Fig. 4a)",[4]; 1000 nM,21.8695
same,"cellular protease activity on Caco-2 cells, Mean (Fig. 4a)",[4]; 10000 nM,6.173
same,"cellular protease activity on Caco-2 cells, Mean (Fig. 4a)",[4]; 100000 nM,1.764
same,IC50,[5]; read-out: IC50 SARS-CoV-2 Wuhan-Hu-1,3620 nM
same,IC50,[5]; read-out: IC50 SARS-CoV-2 Wuhan-Hu-1 (text),3600 nM
same,"TMPRSS2 activity, Mean (Fig. 2a)",[6]; 0.05 nM,101.705
same,"TMPRSS2 activity, Mean (Fig. 2a)",[6]; 0.5 nM,66.4773
same,"TMPRSS2 activity, Mean (Fig. 2a)",[6]; 5 nM,16.1932
same,"TMPRSS2 activity, Mean (Fig. 2a)",[6]; 50 nM,0.2841
same,"TMPRSS2 activity, Mean (Fig. 2a)",[6]; 500 nM,0.5682
same,"TMPRSS2 activity, Mean (Fig. 2a)",[6]; 5000 nM,-0.142
same,"TMPRSS2 activity, Mean (Fig. 2a)",[6]; 50000 nM,0.2841
same,"TMPRSS2 activity, Mean (Fig. 2a)",[6]; 500000 nM,-0.4261
same,IC50,"[7]; Caco-2 cells, luciferase 2 days post transduction, read-out: IC50 pseudotyped lentivirus Beta",156 nM
same,"SARS-CoV-2 spike driven entry, Mean (0 nM = 100)",[7]; compound 3.2 nM,69.473
same,"SARS-CoV-2 spike driven entry, Mean (0 nM = 100)",[7]; compound 16 nM,73.209
same,"SARS-CoV-2 spike driven entry, Mean (0 nM = 100)",[7]; compound 80 nM,64.2815
same,"SARS-CoV-2 spike driven entry, Mean (0 nM = 100)",[7]; compound 400 nM,45.014
same,"SARS-CoV-2 spike driven entry, Mean (0 nM = 100)",[7]; compound 2000 nM,20.732
same,"SARS-CoV-2 spike driven entry, Mean (0 nM = 100)",[7]; compound 10000 nM,4.9565
same,"SARS-CoV-2 spike driven entry, Mean (0 nM = 100)",[7]; compound 50000 nM,3.2315
same,"SARS-CoV-2 spike driven entry, Mean (0 nM = 100)",[8],47.6902 and 69.3145 and 95.2747
same,IC50,"[8]; Caco-2 cells, luciferase 2 days post transduction, read-out: IC50 pseudotyped lentivirus Omicron BA.1",77.6 nM
same,"SARS-CoV-2 spike driven entry, Mean (0 nM = 100)","[8]; Fig. 5e, compound 400 nM, […]",26.7078
same,"SARS-CoV-2 spike driven entry, Mean (0 nM = 100)","[8]; Fig. 5e, compound 2000 nM, […]",11.5722
same,"SARS-CoV-2 spike driven entry, Mean (0 nM = 100)","[8]; Fig. 5e, compound 10000 nM, […]",6.102
same,"SARS-CoV-2 spike driven entry, Mean (0 nM = 100)","[8]; Fig. 5e, compound 50000 nM, […]",4.574
same,"factor Xa activity, Mean (Fig. 2d)","[9]; 0.04 nM, 0 nM = 100",85.6127
same,"factor Xa activity, Mean (Fig. 2d)","[9]; 0.2 nM, 0 nM = 100",89.6222
same,"factor Xa activity, Mean (Fig. 2d)","[9]; 2 nM, 0 nM = 100",92.4525
same,"factor Xa activity, Mean (Fig. 2d)","[9]; 20 nM, 0 nM = 100",96.9338
same,"factor Xa activity, Mean (Fig. 2d)","[9]; 200 nM, 0 nM = 100",78.0652
same,"factor Xa activity, Mean (Fig. 2d)",[9]; 1000 nM,72.1688
same,"factor Xa activity, Mean (Fig. 2d)","[9]; 10000 nM, 0 nM = 100",33.4905
same,"factor Xa activity, Mean (Fig. 2d)","[9]; 100000 nM, 0 nM = 100",14.8585
same,Ki,"[9]; 30 min preincubation, substrate Bz-Ile-Glu-Gly-Arg-pNA",1790 nM
